Test results as given in patent US11034650B2, “Compounds useful for treating a Mannheimia haemolytica or Histophilus somni infection” (Intervet Inc., priority 2016, dated 2021).
Values after ≈ are worked out from the molar mass of the structure shown.

Assays:
Assay type in all cases: cell-based
[1] = test system: Mannheimia haemolytica MH 6357 (M7/2, reference strain, cattle infection strain); experiment: MIC, broth-microdilution (CLSI VET01-A4), strain MH 6357; settings: Mannheimia haemolytica strain MH 6357, broth-microdilution; unit assumed
In short: (§1)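 Growth inhibition is scored visually on a doubling dilution series. The reported MIC corresponds to the lowest concentration free of turbidity, with results assessed under CLSI VET01-S3.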

[2] = test system: Mannheimia haemolytica MH 6374 (ATCC 33396, reference strain); experiment: MIC, broth-microdilution (CLSI VET01-A4), strain MH 6374; settings: Mannheimia haemolytica strain MH 6374, broth-microdilution; unit assumed
In short: as §1

[3] = test system: Mannheimia haemolytica MH 10720 (154, BRD field isolate); experiment: MIC, broth-microdilution (CLSI VET01-A4), strain MH 10720; settings: Mannheimia haemolytica strain MH 10720, broth-microdilution; unit assumed
In short: as §1

[4] = test system: Mannheimia haemolytica MH 12587 (1071, BRD field isolate, macrolide-resistance: erm+, E+); experiment: MIC, broth-microdilution (CLSI VET01-A4), strain MH 12587; settings: Mannheimia haemolytica strain MH 12587, broth-microdilution; unit assumed
In short: as §1

[5] = test system: Mannheimia haemolytica MH 13065 (XB0446-6003.9, BRD field isolate); experiment: MIC, broth-microdilution (CLSI VET01-A4), strain MH 13065; settings: Mannheimia haemolytica strain MH 13065, broth-microdilution; unit assumed
In short: as §1

[6] = test system: Mannheimia haemolytica MH 13093 (XB0472-6014.1, BRD field isolate); experiment: MIC, broth-microdilution (CLSI VET01-A4), strain MH 13093; settings: Mannheimia haemolytica strain MH 13093, broth-microdilution; unit assumed
In short: as §1

[7] = test system: Pasteurella multocida PM 6267 (P 2225 (L386), reference strain, mouse infection strain); experiment: MIC, broth-microdilution (CLSI VET01-A4), strain PM 6267; settings: Pasteurella multocida strain PM 6267, broth-microdilution; unit assumed
In short: as §1

[8] = test system: Pasteurella multocida PM 6391 (ATCC 43137, reference strain); experiment: MIC, broth-microdilution (CLSI VET01-A4), strain PM 6391; settings: Pasteurella multocida strain PM 6391, broth-microdilution; unit assumed
Protocol: For example, representative compounds were tested against ***, Mannheimia haemolytica and Pasteurella multocida, using the conventional broth-dilution assay.
The Minimum inhibitory concentrations (MIC) of compounds according to the invention for a number of veterinary bacterial pathogens were determined by the broth-microdilution method according to CLSI document VET01-A4.
Microdilution trays containing a doubling dilution series of the test compound were used for the tests. The MIC results were interpreted according to the CLSI documents VET01-S3. The lowest concentration of compound at which no visible growth (i.e. no turbidity) detected by the unaided eye was recorded as the MIC.

[9] = test system: Pasteurella multocida PM 10775 (080130003051, BRD field isolate); experiment: MIC, broth-microdilution (CLSI VET01-A4), strain PM 10775; settings: Pasteurella multocida strain PM 10775, broth-microdilution; unit assumed
In short: as §1

[10] = test system: Pasteurella multocida PM 12080 (IV102277-0093, BRD field isolate); experiment: MIC, broth-microdilution (CLSI VET01-A4), strain PM 12080; settings: Pasteurella multocida strain PM 12080, broth-microdilution; unit assumed
In short: as §1

MIC PM 6267 [7] [µg/mL]	MIC PM 6391 [8] [µg/mL]	MIC PM 10775 [9] [µg/mL]	MIC PM 12080 [10] [µg/mL]	SMILES	MIC MH 6357 [1] [µg/mL]	MIC MH 6374 [2] [µg/mL]	MIC MH 10720 [3] [µg/mL]	MIC MH 12587 [4] [µg/mL]	MIC MH 13065 [5] [µg/mL]	MIC MH 13093 [6] [µg/mL]
1.6 (≈ 3 µM)	1.6 (≈ 3 µM)	0.2 (≈ 0.375 µM)	0.8 (≈ 1.5 µM)	COc1ccc(CNCc2ccc(C#Cc3ccc(C(=O)N[C@H](C(=O)NO)C(C)(C)SC)cc3)cn2)cc1 [Compound 340]	0.8 (≈ 1.5 µM)	1.6 (≈ 3 µM)	0.4 (≈ 0.751 µM)	3.1 (≈ 5.82 µM)	1.6 (≈ 3 µM)	1.6 (≈ 3 µM)
≤ 0.1	0.2 (≈ 0.365 µM)	≤ 0.1	≤ 0.1	Cc1ccc(CNCc2ccc(C#Cc3ccc(C(=O)N[C@H](C(=O)NO)C(C)(C)S(C)(=O)=O)cc3)cc2)cc1 [Compound 272]	0.8 (≈ 1.46 µM)	0.4 (≈ 0.73 µM)	≤ 0.1	1.6 (≈ 2.92 µM)	0.2 (≈ 0.365 µM)	0.8 (≈ 1.46 µM)
0.4 (≈ 0.882 µM)	0.8 (≈ 1.76 µM)	≤ 0.1	0.8 (≈ 1.76 µM)	CCCNCc1ccc(C#Cc2ccc(C(=O)N[C@H](C(=O)NO)C(C)(C)SC)cc2)cc1 [Compound 245]	3.1 (≈ 6.83 µM)	3.1 (≈ 6.83 µM)	0.4 (≈ 0.882 µM)	3.1 (≈ 6.83 µM)	1.6 (≈ 3.53 µM)	3.1 (≈ 6.83 µM)
≤ 0.1	≤ 0.1	≤ 0.1	≤ 0.1	CC(C)([C@H](NC(=O)c1ccc(C#Cc2ccc(CNCc3cccs3)cc2)cc1)C(=O)NO)S(C)(=O)=O [Compound 271]	0.4 (≈ 0.741 µM)	0.2 (≈ 0.371 µM)	≤ 0.1	0.8 (≈ 1.48 µM)	0.2 (≈ 0.371 µM)	0.4 (≈ 0.741 µM)
6.3 (≈ 13.4 µM)	≤ 0.1	0.4 (≈ 0.852 µM)	0.2 (≈ 0.426 µM)	CC(=O)[C@H](NC(=O)c1ccc(C#Cc2ccc(CNCc3ccc(C)cc3)cc2)cc1)C(=O)NO [Compound 412]	1.6 (≈ 3.41 µM)	1.6 (≈ 3.41 µM)	1.6 (≈ 3.41 µM)	0.4 (≈ 0.852 µM)	1.6 (≈ 3.41 µM)	1.6 (≈ 3.41 µM)
0.2 (≈ 0.425 µM)	1.6 (≈ 3.4 µM)	≤ 0.1	0.4 (≈ 0.85 µM)	CC[C@H](C)[C@H](NC(=O)c1ccc(C#Cc2ccc(CNCc3cccnc3)cc2)cc1)C(=O)NO [Compound 179]	0.4 (≈ 0.85 µM)	0.8 (≈ 1.7 µM)	≤ 0.1	1.6 (≈ 3.4 µM)	0.8 (≈ 1.7 µM)	0.8 (≈ 1.7 µM)
≤ 0.1	0.8 (≈ 1.8 µM)	≤ 0.1	0.4 (≈ 0.898 µM)	CC(C)[C@H](NC(=O)c1ccc(C#Cc2ccc(CNCc3ncc[nH]3)cc2)cc1)C(=O)NO [Compound 173]	3.1 (≈ 6.96 µM)	3.1 (≈ 6.96 µM)	0.8 (≈ 1.8 µM)	6.3 (≈ 14.1 µM)	6.3 (≈ 14.1 µM)	6.3 (≈ 14.1 µM)
0.8 (≈ 1.67 µM)	≤ 0.1	≤ 0.1	≤ 0.1	CC(C)(O)[C@H](NC(=O)c1ccc(C#Cc2ccc(CNCc3cccnc3)s2)cc1)C(=O)NO [Compound 296]	≤ 0.1	0.2 (≈ 0.418 µM)	≤ 0.1	0.4 (≈ 0.836 µM)	≤ 0.1	0.4 (≈ 0.836 µM)
1.6 (≈ 3.38 µM)	0.8 (≈ 1.69 µM)	≤ 0.1	0.4 (≈ 0.845 µM)	CC(C)(O)[C@H](NC(=O)c1ccc(C#Cc2ccc(CNCc3cccnc3)nc2)cc1)C(=O)NO [Compound 330]	0.8 (≈ 1.69 µM)	0.8 (≈ 1.69 µM)	0.2 (≈ 0.422 µM)	3.1 (≈ 6.55 µM)	1.6 (≈ 3.38 µM)	1.6 (≈ 3.38 µM)
≤ 0.1	0.8 (≈ 1.59 µM)	≤ 0.1	0.2 (≈ 0.398 µM)	CSC(C)(C)[C@H](NC(=O)c1ccc(C#Cc2ccc(CNCc3cccnc3)cc2)cc1)C(=O)NO [Compound 247]	0.4 (≈ 0.796 µM)	0.8 (≈ 1.59 µM)	0.2 (≈ 0.398 µM)	0.8 (≈ 1.59 µM)	0.4 (≈ 0.796 µM)	0.8 (≈ 1.59 µM)
1.6 (≈ 3.8 µM)	3.1 (≈ 7.35 µM)	0.2 (≈ 0.474 µM)	3.1 (≈ 7.35 µM)	CC[C@H](C)[C@H](NC(=O)c1ccc(C#Cc2ccc(CNC(C)C)cc2)cc1)C(=O)NO [Compound 141]	6.3 (≈ 14.9 µM)	12.5 (≈ 29.7 µM)	1.6 (≈ 3.8 µM)	12.5 (≈ 29.7 µM)	6.3 (≈ 14.9 µM)	12.5 (≈ 29.7 µM)

The remaining lines, values behind:

SMILES	MIC PM 6267 [7] [µg/mL]	MIC PM 6391 [8] [µg/mL]	MIC PM 10775 [9] [µg/mL]	MIC PM 12080 [10] [µg/mL]	MIC MH 6357 [1] [µg/mL]	MIC MH 6374 [2] [µg/mL]	MIC MH 10720 [3] [µg/mL]	MIC MH 12587 [4] [µg/mL]	MIC MH 13065 [5] [µg/mL]	MIC MH 13093 [6] [µg/mL]
CON=C(C)[C@H](NC(=O)c1ccc(C#Cc2ccc(CN3CCOCC3)cc2)cc1)C(=O)NO [Compound 381]	1.6 (≈ 3.44 µM)	≤ 0.1	0.2 (≈ 0.431 µM)	0.2 (≈ 0.431 µM)	1.6 (≈ 3.44 µM)	3.1 (≈ 6.67 µM)	0.4 (≈ 0.861 µM)	1.6 (≈ 3.44 µM)	1.6 (≈ 3.44 µM)	1.6 (≈ 3.44 µM)
CC(C)(O)[C@H](NC(=O)c1ccc(C#Cc2ccc(CNCc3ccccc3)s2)cc1)C(=O)NO [Compound 294]	0.8 (≈ 1.68 µM)	0.2 (≈ 0.419 µM)	≤ 0.1	≤ 0.1	≤ 0.1	0.2 (≈ 0.419 µM)	≤ 0.1	0.4 (≈ 0.838 µM)	≤ 0.1	0.4 (≈ 0.838 µM)
CC(C)([C@H](NC(=O)c1ccc(C#Cc2ccc(CNCc3nccs3)nc2)cc1)C(=O)NO)S(C)(=O)=O [Compound 374]	0.2 (≈ 0.369 µM)	0.2 (≈ 0.369 µM)	≤ 0.1	≤ 0.1	0.8 (≈ 1.48 µM)	0.8 (≈ 1.48 µM)	0.4 (≈ 0.738 µM)	3.1 (≈ 5.72 µM)	1.6 (≈ 2.95 µM)	3.1 (≈ 5.72 µM)
CC(C)([C@H](NC(=O)c1ccc(C#Cc2ccc(CN3CCCC3)cc2)cc1)C(=O)NO)S(C)(=O)=O [Compound 262]	≤ 0.1	0.4 (≈ 0.804 µM)	≤ 0.1	0.4 (≈ 0.804 µM)	12.5 (≈ 25.1 µM)	6.3 (≈ 12.7 µM)	1.6 (≈ 3.22 µM)	12.5 (≈ 25.1 µM)	6.3 (≈ 12.7 µM)	6.3 (≈ 12.7 µM)
CC(C)(O)[C@H](NC(=O)c1ccc(C#Cc2ccc(CNCc3ncccn3)nc2)cc1)C(=O)NO [Compound 363]	1.6 (≈ 3.37 µM)	3.1 (≈ 6.53 µM)	0.4 (≈ 0.843 µM)	1.6 (≈ 3.37 µM)	6.3 (≈ 13.3 µM)	6.3 (≈ 13.3 µM)	3.1 (≈ 6.53 µM)	25 (≈ 52.7 µM)	12.5 (≈ 26.3 µM)	25 (≈ 52.7 µM)
COCCNCc1ccc(C#Cc2ccc(C(=O)N[C@H](C(=O)NO)C(C)(C)O)cc2)s1 [C.292]	1.6 (≈ 3.59 µM)	0.8 (≈ 1.8 µM)	≤ 0.1	0.4 (≈ 0.898 µM)	0.4 (≈ 0.898 µM)	0.8 (≈ 1.8 µM)	≤ 0.1	1.6 (≈ 3.59 µM)	0.8 (≈ 1.8 µM)	1.6 (≈ 3.59 µM)
CC(C)(O)[C@H](NC(=O)c1ccc(C#Cc2ccc(CNCc3ccco3)s2)cc1)C(=O)NO [Compound 298]	0.4 (≈ 0.856 µM)	≤ 0.1	≤ 0.1	≤ 0.1	≤ 0.1	0.2 (≈ 0.428 µM)	≤ 0.1	0.4 (≈ 0.856 µM)	0.2 (≈ 0.428 µM)	0.4 (≈ 0.856 µM)
C=CCNCc1ccc(C#Cc2ccc(C(=O)N[C@H](C(=O)NO)C(C)(C)O)cc2)cc1 [Compound 220]	≤ 0.1	0.4 (≈ 0.949 µM)	≤ 0.1	0.4 (≈ 0.949 µM)	3.1 (≈ 7.35 µM)	0.8 (≈ 1.9 µM)	≤ 0.1	3.1 (≈ 7.35 µM)	0.8 (≈ 1.9 µM)	1.6 (≈ 3.8 µM)
COCCNCc1ccc(C#Cc2ccc(C(=O)N[C@H](C(=O)NO)C(C)=NOC)cc2)cc1 [Compound 380]	6.3 (≈ 13.9 µM)	0.2 (≈ 0.442 µM)	1.6 (≈ 3.54 µM)	0.8 (≈ 1.77 µM)	3.1 (≈ 6.85 µM)	6.3 (≈ 13.9 µM)	3.1 (≈ 6.85 µM)	0.8 (≈ 1.77 µM)	3.1 (≈ 6.85 µM)	6.3 (≈ 13.9 µM)
CSC(C)(C)[C@H](NC(=O)c1ccc(C#Cc2ccc(CNCc3ccccn3)nc2)cc1)C(=O)NO [Compound 343]	3.1 (≈ 6.16 µM)	6.3 (≈ 12.5 µM)	0.4 (≈ 0.794 µM)	1.6 (≈ 3.18 µM)	3.1 (≈ 6.16 µM)	3.1 (≈ 6.16 µM)	0.4 (≈ 0.794 µM)	6.3 (≈ 12.5 µM)	3.1 (≈ 6.16 µM)	6.3 (≈ 12.5 µM)
